The text below walks through data of US10519134B2, “Pyrazole compounds and methods of making and using same” (Lundbeck La Jolla Research Center, Inc., priority 2015, dated 2019).

pIC50: −log10 of the molar value.

In test [1] the target is T1, MAGL (Mus musculus, UniProt O35678).
T1 construct: Proteomes (mouse brain membrane fraction or cell lysates); from tissue; host or cells: mouse brain membrane fraction (or cell lysates)
T1 sequence (O35678 1-303): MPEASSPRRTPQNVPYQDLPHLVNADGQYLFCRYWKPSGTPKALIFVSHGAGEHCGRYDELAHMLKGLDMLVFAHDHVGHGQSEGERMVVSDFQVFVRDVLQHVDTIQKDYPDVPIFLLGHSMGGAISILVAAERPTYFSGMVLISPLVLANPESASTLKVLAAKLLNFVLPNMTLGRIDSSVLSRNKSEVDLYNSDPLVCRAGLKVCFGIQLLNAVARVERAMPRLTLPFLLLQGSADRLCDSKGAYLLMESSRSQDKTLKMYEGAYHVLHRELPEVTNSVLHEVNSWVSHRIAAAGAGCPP
The test can be described thus: In vitro competitive activity-based protein profiling (mouse), MAGL gel band. In kind it is biochemical. The following applies: for pIC50: mouse; for inhibition at 1 µM: read-out: MAGL % inh. 1 μM. Put shortly:
(§1)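 Mouse brain membrane proteome or cell lysate (1.0 mg/mL protein) preincubated 30 min at 37 °C with varying inhibitor concentrations, then labelled 30 min at 37 °C with FP-Rh or HT-01 probe (50 μM stock). After SDS-PAGE, activity taken from fluorescent intensity of the MAGL and FAAH gel bands.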

Test [2] deals with T2, FAAH (Mus musculus, UniProt O08914).
T2 construct: Proteomes (mouse brain membrane fraction or cell lysates); from tissue; host or cells: mouse brain membrane fraction (or cell lysates)
T2 sequence (O08914 1-579): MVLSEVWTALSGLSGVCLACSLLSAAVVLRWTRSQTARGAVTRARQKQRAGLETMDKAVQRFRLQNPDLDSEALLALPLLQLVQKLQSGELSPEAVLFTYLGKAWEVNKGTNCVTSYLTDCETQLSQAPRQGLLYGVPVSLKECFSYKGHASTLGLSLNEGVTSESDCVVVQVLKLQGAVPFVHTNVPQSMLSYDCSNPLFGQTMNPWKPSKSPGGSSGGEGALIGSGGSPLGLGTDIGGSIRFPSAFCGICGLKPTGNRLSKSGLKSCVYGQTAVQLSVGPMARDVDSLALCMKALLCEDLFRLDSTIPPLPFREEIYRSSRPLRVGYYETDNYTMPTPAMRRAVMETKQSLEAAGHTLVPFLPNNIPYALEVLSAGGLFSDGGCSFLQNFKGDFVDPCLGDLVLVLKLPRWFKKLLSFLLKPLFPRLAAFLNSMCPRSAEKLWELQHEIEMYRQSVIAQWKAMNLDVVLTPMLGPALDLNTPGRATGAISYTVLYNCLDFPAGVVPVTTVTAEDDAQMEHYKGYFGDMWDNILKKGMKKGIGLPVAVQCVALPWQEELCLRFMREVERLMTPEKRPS
The test can be described thus: In vitro competitive activity-based protein profiling (mouse), FAAH gel band. As to conditions: for pIC50: mouse; for inhibition at 1 µM: read-out: FAAH % inh. 1 μM. The test is classed as biochemical. In short, it runs like this:
as §1

As for `CS(=O)(=O)Nc1ccn(C(=O)N2CCN(Cc3ccc(Cl)cc3N3CCCCC3)CC2)n1` [Example 128, N-(1-(4-(4-chloro-2-(piperidin-1-yl)benzyl)piperazine-1-carbonyl)-1H-pyrazol-3-yl) methanesulfonamide], in test [1], the pIC50 (in general, the IC50 on a negative log10 scale, so that one unit is a factor of ten) is at least 7.00 and the inhibition at 1 µM is at least 75%. In test [2], the pIC50 was 5.00 to 6.00 and the inhibition at 1 µM lay within 0 to 25%.
The like results for `CS(=O)(=O)Nc1ccn(C(=O)N2CCN(Cc3ccc(C(F)(F)F)cc3N3CCCCC3)CC2)n1` [Example 129, N-(1-(4-(2-(piperidin-1-yl)-4-(trifluoromethyl)benzyl)piperazine-1-carbonyl)-1H-pyrazol-3-yl) methanesulfonamide] were, in that order, at least 7.00, at least 75%, 5.00 to 6.00 and 0 to 25%.
For `CS(=O)(=O)Nc1ccn(C(=O)N2CCC3(CCCN3Cc3ccc(Cl)cc3N3CCCC3)CC2)n1` [Example 131, N-(1-(1-(4-chloro-2-(pyrrolidin-1-yl)benzyl)-1,8-diazaspiro[4.5]decane-8-carbonyl)-1H-pyrazol-3-yl)methanesulfonamide], the inhibition at 1 µM in test [1] lay in the range of 50 to 75%; in test [2] it was 0 to 25%.
The like results for `CS(=O)(=O)Nc1ccn(C(=O)N2CCC3(CCCN3Cc3ccc(Cl)cc3N3CCCCC3)CC2)n1` [Example 132, N-(1-(1-(4-chloro-2-(piperidin-1-yl)benzyl)-1,8-diazaspiro[4.5]decane-8-carbonyl)-1H-pyrazol-3-yl)methanesulfonamide] were, in that order, 50 to 75% and 0 to 25%.
Regarding `CS(=O)(=O)Nc1ccn(C(=O)N2CCC3(CCCN3Cc3ccc(C(F)(F)F)cc3N3CCCCC3)CC2)n1` [Example 133, N-(1-(1-(2-(piperidin-1-yl)-4-(trifluoromethyl)benzyl)-1,8-diazaspiro[4.5]decane-8-carbonyl)-1H-pyrazol-3-yl)methanesulfonamide], in test [1], the pIC50 was 6.00 to 7.00 and the inhibition at 1 µM was at least 75%. Besides, in test [2], the pIC50 was 5.00 to 6.00 and the inhibition at 1 µM lay in the range of 0 to 25%.
Take `CC(C)S(=O)(=O)Nc1ccn(C(=O)N2CCN(Cc3ccc(C(F)(F)F)cc3N3CCCC3)CC2)n1` [Example 134, N-(1-(4-(2-(pyrrolidin-1-yl)-4-(trifluoromethyl)benzyl)piperazine-1-carbonyl)-1H-pyrazol-3-yl)propane-2-sulfonamide]: in test [1], the pIC50 is 5.00 to 6.00 and the inhibition at 1 µM is 25 to 50%. For the same molecule, in test [2], the negative logarithm of the IC50 (pIC50) is 5.00 to 6.00 and the inhibition at 1 µM is 0 to 25%.
For `CS(=O)(=O)Nc1ccn(C(=O)N2CCN(Cc3ccc(Cl)cc3N3CCOCC3)CC2)n1` [Example 135, N-(1-(4-(4-chloro-2-morpholinobenzyl)piperazine-1-carbonyl)-1H-pyrazol-3-yl) methanesulfonamide], in test [1], the pIC50 is 6.00 to 7.00 and the inhibition at 1 µM was at least 75%. For the same molecule, in test [2], the pIC50 is 5.00 to 6.00 and the inhibition at 1 µM is 0 to 25%.
For `Cc1ccc(CN2CCN(C(=O)n3ccc(NS(C)(=O)=O)n3)CC2)c(N2CCCCC2)c1` [Example 138, N-(1-(4-(4-methyl-2-(piperidin-1-yl)benzyl)piperazine-1-carbonyl)-1H-pyrazol-3-yl) methanesulfonamide], in test [1], the pIC50 was 6.00 to 7.00 and the inhibition at 1 µM was at least 75%. For the same molecule, in test [2], the pIC50 is 5.00 to 6.00 and the inhibition at 1 µM lay in the range of 0 to 25%.
The like results for `CS(=O)(=O)Nc1ccn(C(=O)N2CCC3(CCCN3Cc3ccc(Cl)cc3N3C[C@H]4CC[C@@H](C3)O4)CC2)n1` [Example 139, N-(1-(1-(2-((1R,5S)-8-oxa-3-azabicyclo[3.2.1]octan-3-yl)-4-chlorobenzyl)-1,8-diazaspiro[4.5]decane-8-carbonyl)-1H-pyrazol-3-yl) methanesulfonamide] were, in that order, 6.00 to 7.00, at least 75%, 5.00 to 6.00 and 0 to 25%.
Take `CS(=O)(=O)Nc1ccn(C(=O)N2CCC3(CCCN3Cc3cccc(N4CCCC4)c3Cl)CC2)n1` [Example 141, N-(1-(1-(2-chloro-3-(pyrrolidin-1-yl)benzyl)-1,8-diazaspiro[4.5]decane-8-carbonyl)-1H-pyrazol-3-yl) methanesulfonamide]: the negative logarithm of the IC50 (pIC50) was 6.00 to 7.00 in test [1] and 5.00 to 6.00 in test [2]. Besides, the inhibition at 1 µM in test [1] is at least 75%; in test [2] it was 0 to 25%.
`CS(=O)(=O)Nc1ccn(C(=O)N2CCC3(CCCN3Cc3cccc(N4CCOCC4)c3Cl)CC2)n1` [Example 143, N-(1-(1-(2-chloro-3-morpholinobenzyl)-1,8-diazaspiro[4.5]decane-8-carbonyl)-1H-pyrazol-3-yl) methanesulfonamide]: the inhibition at 1 µM in test [1] lay in the range of 50 to 75%; in test [2] it was 0 to 25%.
Turning to `CS(=O)(=O)Nc1ccn(C(=O)N2CCC3(CCCN3Cc3cccc(N4CCCCC4)c3Cl)CC2)n1` [Example 144, N-(1-(1-(2-chloro-3-(piperidin-1-yl)benzyl)-1,8-diazaspiro[4.5]decane-8-carbonyl)-1H-pyrazol-3-yl) methanesulfonamide], the pIC50 in test [1] is 6.00 to 7.00; in test [2] it was 5.00 to 6.00. Moreover, the inhibition at 1 µM in test [1] is at least 75%; in test [2] it was 0 to 25%.
Take `CS(=O)(=O)Nc1ccn(C(=O)N2CCC3(CCCN3Cc3cccc(N4CC5CCC(C4)O5)c3Cl)CC2)n1` [Example 145, N-(1-(1-(3-(8-oxa-3-azabicyclo[3.2.1]octan-3-yl)-2-chlorobenzyl)-1,8-diazaspiro[4.5]decane-8-carbonyl)-1H-pyrazol-3-yl) methanesulfonamide]: the figures for the pIC50 in test [1] and in test [2] were 6.00 to 7.00 and 5.00 to 6.00, respectively. Also, the inhibition at 1 µM is at least 75% in test [1] and 0 to 25% in test [2].
Consider `Cc1ccc(CN2CCN(C(=O)n3ccc(NS(C)(=O)=O)n3)CC2)c(N2CCOCC2)c1` [Example 147, N-(1-(4-(4-methyl-2-morpholinobenzyl)piperazine-1-carbonyl)-1H-pyrazol-3-yl) methanesulfonamide], for which the inhibition at 1 µM was at least 75% in test [1] and 0 to 25% in test [2].
The like results for `CS(=O)(=O)Nc1ccn(C(=O)N2CCC3(CCCN3Cc3cccc(Cl)c3)CC2)n1` [Example 148, N-(1-(1-(3-chlorobenzyl)-1,8-diazaspiro[4.5]decane-8-carbonyl)-1H-pyrazol-3-yl)methanesulfonamide] were, in that order, 0 to 25% and 0 to 25%.
For the molecule `Cc1c(CN2CCCC23CCN(C(=O)n2ccc(NS(C)(=O)=O)n2)CC3)cccc1N1CC2CCC(C1)O2` [Example 149, N-(1-(1-(3-(8-oxa-3-azabicyclo[3.2.1]octan-3-yl)-2-methylbenzyl)-1,8-diazaspiro[4.5]decane-8-carbonyl)-1H-pyrazol-3-yl) methanesulfonamide], the inhibition at 1 µM in test [1] lay within 50 to 75%; in test [2], 0 to 25%.
On to `Cc1cc(-c2ccccc2)ccc1CN1CCN(C(=O)n2ccc(NS(C)(=O)=O)n2)CC1` [Example 150, N-(1-(4-((3-methyl-[1,1′-biphenyl]-4-yl)methyl)piperazine-1-carbonyl)-1H-pyrazol-3-yl) methanesulfonamide], for which, in test [1], the pIC50 was 6.00 to 7.00 and the inhibition at 1 µM was at least 75%. Further, in test [2], the pIC50 was 6.00 to 7.00 and the inhibition at 1 µM is at least 75%.
As to `COc1cc(-c2ccccc2)ccc1CN1CCN(C(=O)n2ccc(NS(C)(=O)=O)n2)CC1` [Example 151, N-(1-(4-((3-methoxy-[1,1′-biphenyl]-4-yl)methyl)piperazine-1-carbonyl)-1H-pyrazol-3-yl) methanesulfonamide], the inhibition at 1 µM was at least 75% in test [1] and 25 to 50% in test [2].
Turning to `CS(=O)(=O)Nc1ccn(C(=O)N2CCN(Cc3ccc(C(F)(F)F)c(N4CCCC4)c3)CC2)n1` [Example 153, N-(1-(4-(3-(pyrrolidin-1-yl)-4-(trifluoromethyl)benzyl)piperazine-1-carbonyl)-1H-pyrazol-3-yl) methanesulfonamide], the inhibition at 1 µM was at least 75% in test [1] and 0 to 25% in test [2].
In the same order, the values of `CS(=O)(=O)Nc1ccn(C(=O)N2CCN(Cc3ccc(C(F)(F)F)c(Cl)c3)CC2)n1` [Example 154, N-(1-(4-(3-chloro-4-(trifluoromethyl)benzyl)piperazine-1-carbonyl)-1H-pyrazol-3-yl) methanesulfonamide] are at least 75% and 0 to 25%.
